Our source for the half-life values is patent publication US12557829B2, “Liquid-phase, supplementary feed composition containing coenzyme Q10” (priority 2021, dated 2026).

Read-outs that look alike come from different tables or passages of the source.

The data set is described as follows: Single intravenous administration, plasma concentration of coenzyme Q10. The data set is classed as in vivo. The following applies: rat, 6 mg/kg, rats. The procedure:
The supplementary feed composition containing coenzyme Q10 was orally administered to rats for 5 consecutive days, and systemic absorption was examined after oral administration on the 5th day. In addition, a single intravenous injection test was performed to evaluate the absorption rate (bioavailability).
Single Intravenous Administration Experiment
Plasma concentration measurement after intravenous coenzyme Q10 administration: dose (6 mg/kg), measured up to 6 hours
Plasma Collection after Intravenous Administration
After lightly anesthetizing the rats with ether, a polyethylene tube (PE-50, Intramedic, Clay Adams, USA) was intubated into the left femoral artery and vein. After the rats recovered from anesthesia, coenzyme Q10 was intravenously administered (6 mg/kg), and blood was collected from the left femoral artery at 0 (blank), 1, 5, 10, 15, 30, 60, 90, 120 and 180 minutes. 250 μl of blood was received in a microtube, and 100 μl of plasma obtained after centrifugation was used for quantification.
Quantification of the Concentration of Coenzyme Q10 in Plasma
For coenzyme Q10, a calibration curve was prepared in which a good linear relationship (R=0.999) was established in the concentration range of 0.05 μg/mL to 10 μg/mL. […] 100 μL of this was taken and quantified by the HPLC assay described above.

On to `COC1=C(OC)C(=O)C(C/C=C(\C)CC/C=C(\C)CC/C=C(\C)CC/C=C(\C)CC/C=C(\C)CC/C=C(\C)CC/C=C(\C)CC/C=C(\C)CC/C=C(\C)CCC=C(C)C)=C(C)C1=O` [coenzyme Q10, 2,3-dimethoxy-5-methyl-6-decaprenyl-1,4-benzoquinone], for which the half-life worked out at 3.3 min (read-out: half-life (t1/2,α) in the pre-distribution phase (α phase)) and 52 min (read-out: half-life (t1/2,β) in the post-distribution phase (β phase)).
